Measurements from patent US9428732B2, “Compositions and methods for differentiating pluripotent stem cells into primitive blood cells and uses thereof” (Primorigen Biosciences, Inc., priority 2011, dated 2016).

Columns and labels:
[1] = test system: pluripotent stem cells (H1 ES cells and CB1 iPS cells); experiment: CFU assay of cells differentiated in Differentiation Medium 1 plus additional molecule; type: cell-based, human; details: for size of CFU colonies: in the present system
Method: FIG. 14 depicts myeloid CFU cell count data for cells differentiated from pluripotent stem cells (H1 ES cells and CB1 iPS cells) in the presence of DEAB and each of Cripto (500 ng/ml), LY2228820 (shown as “LY222820”, 100 nM), Activin A, valproic acid (VPA, 1 mM), sodium selenite (100 nM), and butein (10 μM).
The differentiation cultures were trypsinized at the indicated time points and single-cell suspensions were generated following trypsinization. For the Colony Forming Unit (CFU) assays using methyl cellulose cultures, 25% of the cells were plated in 2 ml of MethoCult H4435 (STEMCELL Technologies, Vancouver, BC) in six-well plates. Alternatively, sorted CD45+, CD43+, CD34+, 7AAD-cells were sorted and plated at 500 cells per 2 ml Methocult media. Cells were incubated for 14 days in a humidified incubator at 37° C. with 5% CO2 and evaluated for colonies by bright-field microscopy (Zeiss (Oberkochen, Germany, www.zeiss.com) Axiovert 200 with a Zeiss Axiocam), Cells were resuspended in PBS supplemented with 2% FBS. For the lymphoid myeloid differentiation assays, either CD45+, CD43+, CD34+, 7AAD-hematopoietic progenitors, or CD45+, CD43+, CD34+, CD38−, CD90+, CD45RA− phenotypic HSCs were plated at 20-40 cells per well onto OP9 and OP9delta feeder lines for B-cell and T-cell differentiation, respectively, as previously described (Nozad Charoudeh H, Tang Y, Cheng M, Cilio C M, Jacobsen S E, Sitnicka E., Identification of an NK/T cell-restricted progenitor in adult bone marrow contributing to bone marrow- and thymic-dependent NK cell, Blood, 2010 Jul. 15; 116(2):183-92. NK cell differentiation as well as myeloid cell differentiation was also detected in this differentiation system. FACS analysis was performed 4-6 weeks after plating for markers of lymphoid cell differentiation with the markers indicated. Similar cell sortings were performed for single cell Terasaki plate assays of myeloid differentiation and expansion using StemSpan media (STEMCELL Technologies, Vancouver, BC) supplemented with TPO, SCF, FLT3, IL3, GM-CSF. Colony size was estimated by microscopy.
We have completed a number of studies to establish other molecules that may further improve the yields and phenotypes of hematopoietic cells derived using Differentiation Medium 1. Tested compounds were Cripto, LY2228820, valproic acid (VPA), sodium selenite, and butein. In all instances, each molecule below was supplemented into Differentiation Medium 1 to study their effect in concert with DEAB. […] The data we report below for these molecules illustrates how they may improve the yield of hematopoietic progenitors and phenotypic stem cells measured by FACS, flow cytometry, and CFU assays. […]

[2] = test system: NOD.Cg-Prkdc^scidI12rg^tm1Wjl/SzJ mice; experiment: Pluripotent stem cell derived hematopoietic cell transplantation, engraftment; type: in vivo; details: Differentiation Medium 1 (containing DEAB) supplemented with the molecule; studies underway, predicted
Method: Single-cell suspensions of the pluripotent stem cell differentiation cultures described herein were injected into sublethally irradiated (325 rad) NOD.Cg-Prkdc^scidI12rg^tm1Wjl/SzJ mice (JAX, Bar Harbor, Me., www.jax.org) via tail vein injections, intrafemoral injection, or cardiac injection. Peripheral blood was harvested at times indicated via tail vein or retro-orbital eye bleed or cardiac puncture on anesthetized mice. Bone marrow and spleen cells were harvested at the terminal stage of the transplant experiment. Bone marrow cells were isolated via pestle mortar crushing of bone followed by rinsing and 70 micron filtering. Cells were analyzed by FACS, CFU assay, or transplanted serially into secondary and tertiary mice. FACS analysis for the human pan hematopoietic marker CD45, progenitor marker CD34, myeloid markers CD11b, CD15, CD33 and lymphoid markers CD19, CD56 and CD132, and erythroid markers CD235. When erythrocytes were not being analyzed, the red cells were lysed using ammonium chloride solution (0.8% NH4Cl with 0.1 mM EDTA) (STEMCELL Technologies, Vancouver, BC), spun, and stained with antibodies against the above-mentioned markers. All animal experiments were conducted in accordance with Institutional Animal ethical use protocols.
We have confirmed short-term engraftment and reconstitution ability of hPSC-derived HSCs produced as described in Example 1, by injecting them into sublethally irradiated (325 rad) NOD.Cg-Prkdc^sicdI12rg^tm1Wjl/SzJ mice (JAX, Bar Harbor, Me., www.jax.org) via tail vein injections, intrafemoral injection, or cardiac injection. We transplanted NOD.Cg-Prkdc^scidI12rg^tm1Wjl/SzJ mice with 3×10^6 unsorted cells or 5000 FACS sorted phenotypic HSCs (CD45+, CD43+, CD34+, CD38−, CD90+, CD45RA−) from differentiations using Differentiation Medium 1 medium not including with DEAB (Control) and Differentiation Medium 1 medium including DEAB (DEAB HSCs). […] Typical published values range from 0.1%-1.0%, including those obtained from our control where DEAB was not used to generate the HSCs (0.34%±0.1%).

[3] = test system: pluripotent lines (ES, iPS); experiment: Additional molecules added to Differentiation Medium 1, FACS and flow cytometry; type: cell-based, human; details: for total number of cells: added to Differentiation Medium 1 (contains DEAB): LG101506 1 uM, sodium selenite 100 nM, valproic acid 1 mM
Method: (§1) Cells from the differentiation cultures were collected at time points indicated and washed in phosphate-buffered saline (PBS) supplemented with 2% FBS. Adherent cells were individualized using TrypLE (Life Technologies, Carlsbad Calif.), passed through a 27.5-gauge needle and filtered through a 40-70 μm cell strainer (BD Falcon, San Diego, Calif., www.bdbiosciences.com). Cells were treated with 7-aminoactinomycin D (7AAD) before analysis, and positive cells were gated out of results. Cells were stained with fluorescence-conjugated antibodies for the hematopoietic stem and progenitor cell markers CD45, CD43, CD34, CD38, CD90; CD45RA. Cells were analyzed on a FACS Canto (BD, Franklin Lakes, N.J., www.bd.com).
We have completed a number of studies to establish other molecules that may further improve the yields and phenotypes of hematopoietic cells derived using Differentiation Medium 1. Tested compounds were Cripto, LY2228820, valproic acid (VPA), sodium selenite, and butein. In all instances, each molecule below was supplemented into Differentiation Medium 1 to study their effect in concert with DEAB. All control experiments for these molecules were cells differentiated using Differentiation Medium 1 (which already contains DEAB). The data we report below for these molecules illustrates how they may improve the yield of hematopoietic progenitors and phenotypic stem cells measured by FACS, flow cytometry, and CFU assays. […] The in vivo engraftment studies to confirm this for these molecules are underway.
(§2) It has been shown that DS DNA breaks reduce transplant efficiency of repopulating HSCs. In vitro derived blood from pluripotent stem cell has high levels of DNA damage. Inhibition of DNA damage and the DNA damage response, from reactive oxygen species (ROS) or other sources of damage (radiation, chemical etc) in pluripotent stem cell differentiation systems will decrease DNA damage and increase hematopoietic cell number, repopulating ability and increase the differentiation potential of the cells (i.e. expansion of downstream lineages). See Yahata et al. Blood, 2011, 118(11):2941-50). […] Adding sodium selenite (100 nM) and butein (10 uM) independently to Differentiation Medium 1 increased enzyme activity for protection against reactive oxygen species (ROS). […] See FIGS. 11A and 11B for sodium selenite and FIGS. 12A and 12B for butein. These studies are being expanded into dose response experiments from which we expect to identify optimal concentrations.
From the pluripotent stem cells differentiated with Differentiation Medium 1 supplemented with 1 mM of valproic acid, we see that all CD34+CD38− cells were 100% CD90+. […] Engraftment studies as described are also being conducted.

H1 ES cells = experiment: LY2228820 added to Differentiation Medium 1, flow cytometry, ES cells; type: cell-based, human; details: 100 nM LY2228820; FIG. 8A
Method: as §1
(§3) We conducted experiments to determine whether the p38 inhibitor LY2228820 could further increase hematopoietic progenitor and phenotypic stem cell outputs by acting in concert with DEAB when added to Differentiation Medium 1. Human ES and iPS cells were differentiated to progenitors and phenotypic stem cells as described, except 100 nM of LY2228820 was added to Differentiation Medium 1. Cells were then harvested as described and subjected to flow cytometry and FACS analysis using fluorescently labeled antibodies for CD45, CD43, CD34, CD38, CD90, CD45RA as described. […]

iPS cells = experiment: LY2228820 added to Differentiation Medium 1, flow cytometry, iPS cells; type: cell-based, human; details: 100 nM LY2228820; FIG. 8B
Method: as §1, §3

[4] = test system: pluripotent stem cell differentiation cultures; experiment: Enzyme activity for protection against reactive oxygen species; type: cell-based, human; details: added independently to Differentiation Medium 1: sodium selenite 100 nM, butein 10 uM
Description: as §2

human ES cells = experiment: Norepinephrine added to Differentiation Medium 1, flow cytometry; type: cell-based
Method: as §1
We conducted experiments to reveal if human embryo AGM region-harvested cells generate neurospheres in culture to confirm the presence of neural crest cells in the AGM region. We further completed some experiments to identify a component secreted from the neural crest cells that may be involved in definitive hematopoiesis. We harvested human embryo AGM region tissue and, using fluorescent labeled antibodies specific for neural crest cells, were able to identify the presence of neural crest cells in the AGM hematopoietic niche. […] Hypothesizing norepinephrine as a potential effector secreted from the neural crest cells, we tested it for its ability to further increase progenitor and phenotypic stem cell yields when added to Differentiation Medium 1 at a concentration of 10 uM or 300 uM. Human ES and iPS cells were differentiated to progenitors and phenotypic stem cells with Differentiation Medium 1 as described. The only difference is that 10 uM or 300 uM of norepinephrine was added to Differentiation Medium 1. Cells were then harvested as described and subjected to flow cytometry and FACS analysis using fluorescently labeled antibodies for CD45, CD43, CD34, CD38, CD90, CD45RA as described. […] Given the verified presence of neural crest cells in the AGM niche, we are confident that these cells play a role in establishing definitive hematopoiesis in the developing embryo. As such, long term engraftment and reconstitution ability of hematopoietic progenitors and phenotypic stem cells produced from iPS and ES cells differentiated with Differentiation Medium 1 plus norepinephrine as described above are currently underway. The engraftment and reconstitution studies will be conducted as described by the protocol outlined above in the Materials and Methods.

C/C(=C/C=C/C(C)=C/C(=O)O)c1cc(C(C)(C)C)cc(C(C)(C)C)c1OCC(F)F [LG101506]
CFU cellularity and output [1]: enhances
suitability of generated phenotypic HSC cells for in vivo engraftment [2]: suitable for successful in vivo engraftment
total output of CD90+ cells ([3]; LG101506 1 uM in Differentiation Medium 1, ES, iPS): increases
total number of cells ([3]; butein 10 uM): increased

CC(C)(C)Cn1c(N)nc2ccc(-c3[nH]c(C(C)(C)C)nc3-c3ccc(F)cc3)nc21 [LY2228820]
size of CFU colonies [1]: increases CFU size
increase of phenotypic hematopoietic stem cell phenotype (CD45+, CD43+, CD34+, CD38−, CD90+, CD45RA−) over DEAB-containing Differentiation Medium 1 control (H1 ES cells): ~20%
levels of the intermittent progenitor phenotype (CD45+, CD43+, CD34+, CD38−) (H1 ES cells): unaffected
suitability of generated phenotypic HSC cells for in vivo engraftment [2]: suitable for successful in vivo engraftment
numbers of all cells with the progenitor and phenotypic stem cell phenotypes (iPS cells): increased

O=C(/C=C/c1ccc(O)c(O)c1)c1ccc(O)cc1O [butein]
suitability of generated phenotypic HSC cells for in vivo engraftment [2]: suitable for successful in vivo engraftment
CD34+, CD38− cells ([3]; added independently to Differentiation Medium 1: sodium selenite 100 nM, butein 10 uM): increased
total number of cells ([3]; butein 10 uM): increased
enzyme activity for protection against reactive oxygen species (ROS) [4]: increased

NC[C@H](O)c1ccc(O)c(O)c1 [norepinephrine]
increase in HSC number (human ES cells; hES-derived hematopoietic cells, norepinephrine in Differentiation Medium 1): 150%
fold improvement of numbers of phenotypic hematopoietic stem cells (CD45+, CD34+, CD43+, CD38−, CD90+, CD45RA−) (human ES cells; norepinephrine 10 uM or 300 uM in Differentiation Medium 1, FIG. 9C): statistically significant increases
total viable blood cells (CD45+) (human ES cells; norepinephrine 10 uM or 300 uM, FIG. 9A): insignificant improvements
intermediate cells (CD45+, CD43+, CD34+, CD38−) (human ES cells; norepinephrine 10 uM or 300 uM, FIG. 9B): insignificant improvements
colony forming ability ([1]; hES-derived hematopoietic cells, norepinephrine, data not shown): has an effect
suitability of generated phenotypic HSC cells for in vivo engraftment [2]: suitable for successful in vivo engraftment

CCCC(CCC)C(=O)O [valproic acid]
suitability of generated phenotypic HSC cells for in vivo engraftment [2]: suitable for successful in vivo engraftment
CD34+CD38− cells that were CD90+ ([3]; Differentiation Medium 1 supplemented with 1 mM of valproic acid): 100%
total number of cells ([3]; butein 10 uM): increased

B1: Cripto: protein expressed in hypoxic endosteal niche cells (protein, UniProt P13385 31-150, looked up)
Protein Cripto: LGHQEFARPSRGYLAFRDDSIWPQEEPAIRPRSSQRVPPMGIQHSKELNRTCCLNGGTCMLGSFCACPPSFYGRNCEHDVRKENCGSVPHDTWLPKKCSLCKCWHGQLRCFPQAFLPGCD
size of CFU colonies [1]: increases the size
suitability of generated phenotypic HSC cells for in vivo engraftment [2]: suitable for successful in vivo engraftment
